Source: paper PMC12274840 (The Journal of Biological Chemistry, 2025)
Converted amounts (≈) assume the structure as drawn. Like-named read-outs stand apart in the source and are kept apart here.

Key:
[1] = system: E. coli KA797 cells carrying BlaC position 105 library; format: cell-based, Escherichia coli; settings: carbenicillin; for Fi CAR AVG: average of replicates
[2] = system: E. coli KA797 cells carrying pUK21 vector without the β-lactamase gene; test: microbe, parasite or virus in culture; format: cell-based; settings: Escherichia coli; antibiotic alone; pUK21 without β-lactamase gene; read-out: MIC
[3] = system: E. coli KA797 cells carrying pUK21 with KPC-2 (Tat); test: microbe, parasite or virus in culture; format: cell-based; settings: Escherichia coli, antibiotic alone
[4] = system: E. coli KA797 cells carrying pUK21 with CTX-M-14 WT (Tat); test: microbe, parasite or virus in culture; format: cell-based; settings: Escherichia coli, antibiotic alone
[5] = system: E. coli KA797 cells carrying NmcA position 105 library; format: cell-based

CC1(C)S[C@@H]2[C@H](NC(=O)C(C(=O)O)c3ccccc3)C(=O)N2[C@H]1C(=O)O (stereo partly shown) [carbenicillin]
Fi CAR AVG ([1]; AA 105 Ala): -0.273 | Fi CAR 1 ([1]; AA 105 Ala, replicate 1): -0.487 | Fi CAR 3 ([1]; AA 105 Ala, replicate 3): -0.060 | Fi CAR AVG ([1]; AA 105 Arg): 0.354 | Fi CAR 1 ([1]; AA 105 Arg, replicate 1): -0.038 | Fi CAR 2 ([1]; AA 105 Arg, replicate 2): 0.623 | Fi CAR 3 ([1]; AA 105 Arg, replicate 3): 0.477 | Fi CAR AVG ([1]; AA 105 Asn): 0.070 | Fi CAR 1 ([1]; AA 105 Asn, replicate 1): 0.359 | Fi CAR 2 ([1]; AA 105 Asn, replicate 2): -0.104 | Fi CAR 3 ([1]; AA 105 Asn, replicate 3): -0.045 | Fi CAR AVG ([1]; AA 105 Asp): 0.382 | Fi CAR 1 ([1]; AA 105 Asp, replicate 1): 0.054 | Fi CAR 2 ([1]; AA 105 Asp, replicate 2): 0.201 | Fi CAR 3 ([1]; AA 105 Asp, replicate 3): 0.891 | Significance (Fi CAR AVG) ([1]; AA 105 Cys): + | Fi CAR AVG ([1]; AA 105 Cys): 0.765 | Fi CAR 1 ([1]; AA 105 Cys, replicate 1): 0.616 | Fi CAR 2 ([1]; AA 105 Cys, replicate 2): 0.636 | Fi CAR 3 ([1]; AA 105 Cys, replicate 3): 1.043 | Significance (Fi CAR AVG) ([1]; AA 105 Gln): + | Fi CAR AVG ([1]; AA 105 Gln): 1.328 | Fi CAR 1 ([1]; AA 105 Gln, replicate 1): 1.419 | Fi CAR 2 ([1]; AA 105 Gln, replicate 2): 1.237 | Fi CAR AVG ([1]; AA 105 Glu): 0.421 | Fi CAR 1 ([1]; AA 105 Glu, replicate 1): 1.372 | Fi CAR 2 ([1]; AA 105 Glu, replicate 2): -0.419 | Fi CAR 3 ([1]; AA 105 Glu, replicate 3): 0.311 | Significance (Fi CAR AVG) ([1]; AA 105 Gly): - | Fi CAR AVG ([1]; AA 105 Gly): -0.444 | Fi CAR 1 ([1]; AA 105 Gly, replicate 1): -0.596 | Fi CAR 2 ([1]; AA 105 Gly, replicate 2): -0.209 | Fi CAR 3 ([1]; AA 105 Gly, replicate 3): -0.526 | Significance (Fi CAR AVG) ([1]; AA 105 His): + | Fi CAR AVG ([1]; AA 105 His): 2.514 | Fi CAR 1 ([1]; AA 105 His, replicate 1): 2.622 | Fi CAR 2 ([1]; AA 105 His, replicate 2): 2.393 | Fi CAR 3 ([1]; AA 105 His, replicate 3): 2.527 | Fi CAR AVG ([1]; AA 105 Ile (WT)): 0.000 | Fi CAR 1 ([1]; AA 105 Ile (WT), replicate 1): 0.000 | Fi CAR 2 ([1]; AA 105 Ile (WT), replicate 2): 0.000 | Fi CAR 3 ([1]; AA 105 Ile (WT), replicate 3): 0.000 | Significance (Fi CAR AVG) ([1]; AA 105 Leu): + | Fi CAR AVG ([1]; AA 105 Leu): 0.730 | Fi CAR 1 ([1]; AA 105 Leu, replicate 1): 1.223 | Fi CAR 2 ([1]; AA 105 Leu, replicate 2): 0.445 | Fi CAR 3 ([1]; AA 105 Leu, replicate 3): 0.522 | Fi CAR AVG ([1]; AA 105 Met): 0.034 | Fi CAR 1 ([1]; AA 105 Met, replicate 1): 0.791 | Fi CAR 3 ([1]; AA 105 Met, replicate 3): -0.722 | Significance (Fi CAR AVG) ([1]; AA 105 Phe): + | Fi CAR AVG ([1]; AA 105 Phe): 3.398 | Fi CAR 1 ([1]; AA 105 Phe, replicate 1): 3.349 | Fi CAR 2 ([1]; AA 105 Phe, replicate 2): 3.354 | Fi CAR 3 ([1]; AA 105 Phe, replicate 3): 3.492 | Significance (Fi CAR AVG) ([1]; AA 105 Ser): + | Fi CAR AVG ([1]; AA 105 Ser): 0.539 | Fi CAR 1 ([1]; AA 105 Ser, replicate 1): 0.311 | Fi CAR 2 ([1]; AA 105 Ser, replicate 2): 0.896 | Fi CAR 3 ([1]; AA 105 Ser, replicate 3): 0.410 | Fi CAR AVG ([1]; AA 105 Thr): -0.255 | Fi CAR 2 ([1]; AA 105 Thr, replicate 2): -0.487 | Fi CAR 3 ([1]; AA 105 Thr, replicate 3): -0.023 | Significance (Fi CAR AVG) ([1]; AA 105 Trp): + | Fi CAR AVG ([1]; AA 105 Trp): 3.306 | Fi CAR 1 ([1]; AA 105 Trp, replicate 1): 3.226 | Fi CAR 2 ([1]; AA 105 Trp, replicate 2): 3.199 | Fi CAR 3 ([1]; AA 105 Trp, replicate 3): 3.493 | Significance (Fi CAR AVG) ([1]; AA 105 Tyr): + | Fi CAR AVG ([1]; AA 105 Tyr): 3.672 | Fi CAR 1 ([1]; AA 105 Tyr, replicate 1): 3.556 | Fi CAR 2 ([1]; AA 105 Tyr, replicate 2): 3.582 | Fi CAR 3 ([1]; AA 105 Tyr, replicate 3): 3.878 | Fi CAR AVG ([1]; AA 105 Val): -0.016 | Fi CAR 1 ([1]; AA 105 Val, replicate 1): 0.268 | Fi CAR 2 ([1]; AA 105 Val, replicate 2): 0.226 | Fi CAR 3 ([1]; AA 105 Val, replicate 3): -0.543 | WT abs Fi 1 ([1]; WT (Ile 105) absolute fitness, replicate 1): -1.491 | WT abs Fi 2 ([1]; WT (Ile 105) absolute fitness, replicate 2): -1.775 | WT abs Fi 3 ([1]; WT (Ile 105) absolute fitness, replicate 3): -2.001 | MIC [2]: 10 µg/mL (≈ 26.4 µM) | MIC [3]: 400 µg/mL (≈ 1060 µM) | MIC [4]: 16000 µg/mL (≈ 42300 µM) | Fi AVG (average fitness of replicates) ([5]; NmcA AA 105 Ala): -0.798 | Significance of average fitness ([5]; NmcA AA 105 Ala): - | Fi AVG (average fitness of replicates) ([5]; NmcA AA 105 Arg): -0.438 | Significance of average fitness ([5]; NmcA AA 105 Arg): - | Fi AVG (average fitness of replicates) ([5]; NmcA AA 105 Asn): -0.329 | Significance of average fitness ([5]; NmcA AA 105 Asn): - | Fi AVG (average fitness of replicates) ([5]; NmcA AA 105 Asp): -0.908 | Significance of average fitness ([5]; NmcA AA 105 Asp): - | Fi AVG (average fitness of replicates) ([5]; NmcA AA 105 Cys): -0.727 | Significance of average fitness ([5]; NmcA AA 105 Cys): - | Fi AVG (average fitness of replicates) ([5]; NmcA AA 105 Gln): -0.466 | Significance of average fitness ([5]; NmcA AA 105 Gln): - | Fi AVG (average fitness of replicates) ([5]; NmcA AA 105 Glu): -0.772 | Significance of average fitness ([5]; NmcA AA 105 Glu): - | Fi AVG (average fitness of replicates) ([5]; NmcA AA 105 Gly): -0.274 | Significance of average fitness ([5]; NmcA AA 105 Gly): - | Fi AVG (average fitness of replicates) ([5]; NmcA AA 105 His): 0.000 | Fi AVG (average fitness of replicates) ([5]; NmcA AA 105 Ile): -0.761 | Significance of average fitness ([5]; NmcA AA 105 Ile): - | Fi AVG (average fitness of replicates) ([5]; NmcA AA 105 Leu): -0.728 | Significance of average fitness ([5]; NmcA AA 105 Leu): - | Fi AVG (average fitness of replicates) ([5]; NmcA AA 105 Lys): -0.642 | Significance of average fitness ([5]; NmcA AA 105 Lys): - | Fi AVG (average fitness of replicates) ([5]; NmcA AA 105 Met): -0.481 | Significance of average fitness ([5]; NmcA AA 105 Met): - | Fi AVG (average fitness of replicates) ([5]; NmcA AA 105 Phe): -0.458 | Significance of average fitness ([5]; NmcA AA 105 Phe): - | Fi AVG (average fitness of replicates) ([5]; NmcA AA 105 Pro): -0.671 | Significance of average fitness ([5]; NmcA AA 105 Pro): - | Fi AVG (average fitness of replicates) ([5]; NmcA AA 105 Ser): -0.589 | Significance of average fitness ([5]; NmcA AA 105 Ser): - | Fi AVG (average fitness of replicates) ([5]; NmcA AA 105 Thr): -0.842 | Significance of average fitness ([5]; NmcA AA 105 Thr): - | Fi AVG (average fitness of replicates) ([5]; NmcA AA 105 Trp): -0.118 | Significance of average fitness ([5]; NmcA AA 105 Trp): - | Fi AVG (average fitness of replicates) ([5]; NmcA AA 105 Tyr): -0.304 | Significance of average fitness ([5]; NmcA AA 105 Tyr): - | Fi AVG (average fitness of replicates) ([5]; NmcA AA 105 Val): -0.711 | Significance of average fitness ([5]; NmcA AA 105 Val): - | WT abs Fi 1 (absolute fitness) ([5]; NmcA WT, replicate 1): 0.462 | WT abs Fi 2 (absolute fitness) ([5]; NmcA WT, replicate 2): 0.578
